We go through 20 compounds from patent publication US9434725B2, “5-azaindazole compounds and methods of use” (priority 2012, dated 2016).

Holding throughout (type): biochemical
One assay concerns the target PIM1 (Homo sapiens (Human), UniProt P11309). Briefly: biochemical. To be noted: 10 μM ATP, 90 min, room temperature; read-out: PIM1 LC3K (KI). On the procedure:
(§1) A fluorescent-labeled Pim-specific peptide substrate, was custom synthesized by American Peptide Company (Sunnyvale, Calif.). Reaction Buffer contained 10 mM HEPES, pH 7.2, 10 mM MgCl2, 0.01% Tween 20, 2 mM DTT. Termination Buffer contained 190 mM HEPES, pH 7.2, 0.015% Brij-35, 0.2% Coating Reagent 3 (Caliper Life Sciences, Hopkinton, Mass.), 20 mM EDTA. Separation Buffer contained 100 mM HEPES, pH 7.2, 0.015% Brij-35, 0.1% Coating Reagent 3, 1:200 Coating Reagent 8 (Caliper Life Sciences, Hopkinton, Mass.), 10 mM EDTA and 5% DMSO.
(§2) PIM reactions were carried out in a final volume of 10 μL per well in a 384-well plate. […] After 90 minutes of incubation at room temperature, the phosphorylation reaction was stopped by the addition of 10 μL Termination Buffer. The product and substrate in each independent reaction were separated on a 12-sipper microfluidic chip (Caliper Life Sciences, Hopkinton, Mass.) run on a Caliper LC3000® (Caliper Life Sciences, Hopkinton, Mass.). The separation of product and substrate was optimized by choosing voltages and pressure using Caliper's Optimizer software (Hopkinton, Mass.). […] Substrate conversion was calculated from the electropherogram using HTS Well Analyzer software (Caliper Life Sciences, Hopkinton, Mass.). Ki values for the test compound were calculated.

A further assay addresses PIM2 (Homo sapiens (Human), UniProt Q9P1W9). The assay can be described thus: Pim kinase binding activity, Caliper LC3000 microfluidic peptide phosphorylation assay, PIM2. Conditions: 10 μM ATP, 90 min, room temperature; read-out: PIM2 LC3K (KI). As for the experimental part: as §1, §2
The next assay has as its target PIM3 (Homo sapiens (Human), UniProt Q86V86). The assay can be described thus: Pim kinase binding activity, Caliper LC3000 microfluidic peptide phosphorylation assay, PIM3. To be noted: 10 μM ATP, 90 min, room temperature; read-out: PIM3 LC3K (KI). On the procedure: as §1, §2

PIM2, sequence (Q9P1W9 whole entry): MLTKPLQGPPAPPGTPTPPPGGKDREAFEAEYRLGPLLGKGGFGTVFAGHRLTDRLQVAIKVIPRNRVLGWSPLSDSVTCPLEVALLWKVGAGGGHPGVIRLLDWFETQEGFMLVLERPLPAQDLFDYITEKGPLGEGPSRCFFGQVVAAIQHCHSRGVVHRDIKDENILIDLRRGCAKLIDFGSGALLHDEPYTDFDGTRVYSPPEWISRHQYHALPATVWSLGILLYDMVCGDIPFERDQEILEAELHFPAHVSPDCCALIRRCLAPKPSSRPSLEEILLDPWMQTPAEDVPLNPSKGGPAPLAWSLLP
PIM1, sequence (P11309 whole entry): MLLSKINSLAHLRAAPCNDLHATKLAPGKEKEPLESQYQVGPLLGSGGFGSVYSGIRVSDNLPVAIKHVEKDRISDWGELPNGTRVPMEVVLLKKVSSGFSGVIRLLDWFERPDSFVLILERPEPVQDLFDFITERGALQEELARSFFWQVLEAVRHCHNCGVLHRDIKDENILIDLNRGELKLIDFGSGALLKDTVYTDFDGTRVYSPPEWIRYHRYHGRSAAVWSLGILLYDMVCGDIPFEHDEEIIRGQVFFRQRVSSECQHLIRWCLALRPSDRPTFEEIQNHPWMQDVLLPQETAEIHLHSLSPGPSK

Take `Cc1cncc(-c2cc3c(cn2)cnn3-c2cccc(N3C[C@@H](N)CCC3=O)n2)n1` [Compound 202, (5S)-5-amino-1-[6-[6-(6-methylpyrazin-2-yl)pyrazolo[4,3-c]pyridin-1-yl]-2-pyridyl]piperidin-2-one]: the Ki – broadly, the equilibrium dissociation constant of an inhibitor or competing ligand from its target – at PIM1 stood at 56.4 nM; at PIM2, 421 nM; on PIM3, 36.4 nM.

Turning to `c1cc(N2CCNCC2)nc(-n2ncc3cnc(-c4cncc(C5COC5)c4)cc32)c1` [Compound 114, 6-(5-(oxetan-3-yl)pyridin-3-yl)-1-(6-(piperazin-1-yl)pyridin-2-yl)-1H-pyrazolo[4,3-c]pyridine], the inhibitory constant (Ki) on PIM1 amounted to 0.479 nM; on PIM2, 16.9 nM; at PIM3, 0.652 nM.

With `Cc1cncc(-c2cc3c(cn2)cnn3-c2cccc(N3CC4(CCNC4)C3)n2)n1` [Compound 217, 1-[6-(2 7-diazaspiro[3.4]octan-2-yl)-2-pyridyl]-6-(6-methylpyrazin-2-yl)pyrazolo[4,3-c]pyridine], the Ki on PIM1 was 1.17 nM; on PIM2 it was 15.1 nM; on PIM3 it was 0.258 nM.

Take `Cc1cncc(-c2cc3c(cn2)cnn3-c2cccc(N3CCCNC3=O)n2)n1` [Compound 252, 1-[6-[6-(6-methylpyrazin-2-yl)pyrazolo[4,3-c]pyridin-1-yl]-2-pyridyl]hexahydropyrimidin-2-one]: the Ki on PIM1 came to 5.67 nM; at PIM2, 35 nM; at PIM3, 3.16 nM.

On to `Cc1cncc(-c2cc3c(cn2)cnn3-c2cccc(N3CCNCCC3=O)n2)n1` [Compound 206, 4-[6-[6-(6-methylpyrazin-2-yl)pyrazolo[4,3-c]pyridin-1-yl]-2-pyridyl]-1 4-diazepan-5-one], for which the Ki worked out at 3.74 nM on PIM1, 40.4 nM at PIM2 and 2.3 nM at PIM3.

With `Cn1cc(-c2cc3c(cn2)cnn3-c2cccc(N3CC(CN)C3)n2)cn1` [Compound 256, (1-(6-(6-(1-Methyl-1H-pyrazol-4-yl)-1H-pyrazolo[4,3-c]pyridin-1-yl)pyridin-2-yl)azetidin-3-yl)methanamine], the Ki on PIM1 worked out at 5.58 nM; on PIM2, 83.2 nM; at PIM3 it was 2.02 nM.

Take `CCn1cc(-c2cc3c(cn2)cnn3-c2cccc(N3CC[C@@H](N)C3)n2)cn1` [Compound 136, (R)-1-(6-(6-(1-ethyl-1H-pyrazol-4-yl)-1H-pyrazolo[4,3-c]pyridin-1-yl)pyridin-2-yl)pyrrolidin-3-amine]: the Ki is 2.05 nM on PIM1, 17.3 nM at PIM2 and 0.615 nM on PIM3.

Turning to `NC(=O)Cn1cc(-c2cc3c(cn2)cnn3-c2cccc(N3CCCNCC3)n2)cn1` [Compound 159, 2-(4-(1-(6-(1,4-Diazepan-1-yl)pyridin-2-yl)-1H-pyrazolo[4,3-c]pyridin-6-yl)-1H-pyrazol-1-yl)acetamide], the Ki was determined as 0.283 nM on PIM1, 8.33 nM on PIM2 and 0.185 nM on PIM3.

Take `OC1CNCCN(c2cccc(-n3ncc4cnc(-c5cncc(C6COC6)c5)cc43)n2)C1` (stereo not shown) [Compound 116, 1-(6-(6-(5-(oxetan-3-yl)pyridin-3-yl)-1H-pyrazolo[4,3-c]pyridin-1-yl)pyridin-2-yl)-1,4-diazepan-6-ol]: the results for the Ki on PIM1, at PIM2 and at PIM3 were 0.294 nM, 27.6 nM and 0.405 nM, respectively.

As to `Cn1cc(-c2cc3c(cn2)cnn3-c2cccc(C3(F)CCCNCC3)n2)cn1` (stereo not shown) [Compound 236, 1-(6-(4-Fluoroazepan-4-yl)pyridin-2-yl)-6-(1-methyl-1H-pyrazol-4-yl)-1H-pyrazolo[4,3-c]pyridine], the figures for the Ki at PIM1, on PIM2 and at PIM3 were 0.715 nM, 8.6 nM and 0.37 nM, respectively.

For `O=c1cncc(-c2cc3c(cn2)cnn3-c2cccc(N3CCNCC3)n2)[nH]1` [Compound 287, 6-[1-(6-piperazin-1-yl-2-pyridyl)pyrazolo[4,3-c]pyridin-6-yl]-1H-pyrazin-2-one], the Ki amounted to 0.698 nM at PIM1, 17.5 nM at PIM2 and 0.37 nM at PIM3.

For `Cc1cncc(-c2cc3c(cn2)cnn3-c2cc(N3CCC[C@H](N)C3)c(=O)n(C)c2)n1` [Compound 233, (S)-3-(3-aminopiperidin-1-yl)-1-methyl-5-(6-(6-methylpyrazin-2-yl)-1H-pyrazolo[4,3-c]pyridin-1-yl)pyridin-2(1H)-one], the figures for the Ki on PIM1, on PIM2 and on PIM3 were 528 nM, 2300 nM and 903 nM, respectively.

In the case of `FC(F)(F)Cn1cc(-c2cc3c(cn2)cnn3-c2cccc(N3CC4(CCCCN4)C3)n2)cn1` [Compound 269, 1-(6-(2,5-Diazaspiro[3.5]nonan-2-yl)pyridin-2-yl)-6-(1-(2,2,2-trifluoroethyl)-1H-pyrazol-4-yl)-1H-pyrazolo[4,3-c]pyridine], the Ki was determined as 15.7 nM on PIM1, 194 nM at PIM2 and 27 nM on PIM3.

Turning to `Cn1cc(-c2cc3c(cn2)cnn3-c2cccc(N3CC(O)(CN)C3)n2)cn1` [Compound 270, 3-(Aminomethyl)-1-(6-(6-(1-methyl-1H-pyrazol-4-yl)-1H-pyrazolo[4,3-c]pyridin-1-yl)pyridin-2-yl)azetidin-3-ol], the results for the Ki at PIM1, on PIM2 and at PIM3 were 1.08 nM, 20.4 nM and 0.361 nM, respectively.

As to `c1ccc(COc2cncc(-c3cc4c(cn3)cnn4-c3cccc(N4CCNCC4)n3)n2)cc1` [Compound 276, 6-(6-(benzyloxy)pyrazin-2-yl)-1-(6-(piperazin-1-yl)pyridin-2-yl)-1H-pyrazolo[4,3-c]pyridine], the Ki at PIM1 was determined as 0.494 nM; at PIM2 it was 34.8 nM; at PIM3 it was 0.337 nM.

`Cn1cc(-c2cc3c(cn2)cnn3-c2cn(C)c(=O)c(N3CCNCC(O)C3)n2)cn1` (stereo not shown) [Compound 254, 3-(6-Hydroxy-1,4-diazepan-1-yl)-1-methyl-5-(6-(1-methyl-1H-pyrazol-4-yl)-1H-pyrazolo[4,3-c]pyridin-1-yl)pyrazin-2(1H)-one]: the inhibition constant (Ki) at PIM1 came to 30.6 nM; at PIM2, 718 nM; at PIM3, 6.24 nM.

On to `CO[C@]1(C)CNCCN(c2cccc(-n3ncc4cnc(-c5cnn(CC(F)(F)F)c5)cc43)n2)C1` [Compound 264, (R)-1-(6-(6-Methoxy-6-methyl-1,4-diazepan-1-yl)pyridin-2-yl)-6-(1-(2,2,2-trifluoroethyl)-1H-pyrazol-4-yl)-1H-pyrazolo[4,3-c]pyridine], for which the Ki stood at 2.94 nM at PIM1, 58.2 nM at PIM2 and 6.37 nM at PIM3.

Take `CCn1cc(-c2cc3c(cn2)cnn3-c2cccc(N3CCC[C@@H](N)C3)n2)cn1` [Compound 134, (R)-1-(6-(6-(1-ethyl-1H-pyrazol-4-yl)-1H-pyrazolo[4,3-c]pyridin-1-yl)pyridin-2-yl)piperidin-3-amine]: the Ki at PIM1 came out at 0.951 nM; on PIM2, 10.8 nM; on PIM3 it was 0.473 nM.

For the compound `CCn1cc(-c2cc3c(cn2)cnn3-c2cccc(N3CC[C@H](O)C3)n2)cn1` [Compound 127, (S)-1-(6-(6-(1-ethyl-1H-pyrazol-4-yl)-1H-pyrazolo[4,3-c]pyridin-1-yl)pyridin-2-yl)pyrrolidin-3-ol], the Ki at PIM1 amounted to 3.04 nM; at PIM3, 1.31 nM.

For `Cc1cncc(-c2cc3c(cn2)cnn3-c2cccc(OC3CCCC(N)C3)n2)n1` (stereo not shown) [Compound 310, 3-(6-(6-(6-methylpyrazin-2-yl)-1H-pyrazolo[4,3-c]pyridin-1-yl)pyridin-2-yloxy)cyclohexanamine], the Ki on PIM1 is 1.64 nM; on PIM3 it was 1.63 nM.
